In PMC4260220 (Scientific Reports, 2014):

Target: T1, PPARγ (Homo sapiens, UniProt P37231)
T1 sequence (P37231 231-505 limits assumed): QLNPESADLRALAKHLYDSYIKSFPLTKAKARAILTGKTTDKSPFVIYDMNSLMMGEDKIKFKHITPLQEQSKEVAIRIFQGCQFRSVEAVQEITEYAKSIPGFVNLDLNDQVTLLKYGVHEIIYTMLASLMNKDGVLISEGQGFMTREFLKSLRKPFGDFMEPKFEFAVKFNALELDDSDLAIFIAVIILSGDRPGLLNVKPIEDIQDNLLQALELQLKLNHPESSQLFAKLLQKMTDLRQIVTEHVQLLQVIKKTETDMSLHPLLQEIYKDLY
Assay: competitive TR-FRET binding assay

CC(C)=CCC[C@](C)(O)[C@H]1CC[C@]2(C)[C@@H]1[C@H](O)C[C@@H]1[C@@]3(C)CC[C@H](O)C(C)(C)[C@@H]3[C@@H](O)C[C@]12C [PPT, 20(S)-5α-Dammar-24-ene-3β,6α,12β,20-tetrol]
Ki: 4.2 µM
